Measurements published in patent US20140303164A1, “THERAPEUTIC COMPOUNDS” (Gilead Sciences, Inc., priority 2013, published 2014).

What was measured:
[1] = Test B: Cytotoxicity Assay; assay type: cell-based; settings: human, uninfected MT-4 cells, same protocol as Test A
Summary of the method: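 Uninfected MT-4 cells (2000 per well) incubated with diluted compound at 37° C. for 5 days, following the antiviral protocol without HIV-IIIb.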

HIV-IIIb = experiment: Test A: Antiviral Assay in MT4 Cells; assay type: cell-based, HIV-1; settings: Human immunodeficiency virus 1, IIIB, MT4, 120 h; for inhibition at 0.2 µM: read-out: % inhibition at 0.2 μM; for inhibition at 2 µM: read-out: % inhibition at 2 μM
Method: Test A: Antiviral Assay in MT4 Cells
MT-4 cells were next mixed with HIV-IIIb at an m.o.i of 0.003 for 1 hour, after which time 35 μL of virus/cell mixture (2000 cells) was immediately added to each well containing 40 μL of diluted compound. The plates were then incubated at 37° C. for 5 days. […] Cell lysis was carried out by incubating at room temperature for 10 min and then chemiluminescence was read.

Compound	CC50 at 5 days [1] [µM]	inhibition at 0.2 µM (HIV-IIIb) [%]	inhibition at 2 µM (HIV-IIIb) [%]
COCC(=O)Nc1nn(C)c2c(-c3ccc(C#CC(C)(C)O)nc3[C@H](Cc3cc(F)cc(F)c3)NC(=O)Cn3nc(C(F)F)c4c3C(F)(F)[C@@H]3C[C@H]43)ccc(Cl)c12 [Compound 84, N—((S)-1-(3-(4-chloro-3-(2-methoxyacetamido)-1-methyl-1H-indazol-7-yl)-6-(3-hydroxy-3-methylbut-1-yn-1-yl)pyridin-2-yl)-2-(3,5-difluorophenyl)ethyl)-2-((3b-S,4aR)-3-(difluoromethyl)-5,5-difluoro-3b,4,4a,5-tetrahydro-1H-cyclopropa[3,4]cyclopenta[1,2-c]pyrazol-1-yl)acetamide]	8.73	100	100
Cn1nc(NS(C)(=O)=O)c2c(Cl)ccc(-c3ccc(C#CC(C)(C)O)nc3[C@H](Cc3cc(F)cc(F)c3)NC(=O)Cn3nc(C(F)(F)F)c4c3COCC4)c21 [Compound 190, (S)—N-(1-(3-(4 chloro-1-methyl-3-(methylsulfonamido)-1H-indazol-7-yl)-6-(3-hydroxy-3-methylbut-1-yn-1-yl)pyridin-2-yl)-2-(3,5-difluorophenyl)ethyl)-2-(3-(trifluoromethyl)-4,5-dihydropyrano[3,4-c]pyrazol-1(7H)-yl)acetamide]	13.9	98	98
Cn1cnc(S(=O)(=O)Nc2nn(C)c3c(-c4ccc(C#CC(C)(C)O)nc4[C@H](Cc4cc(F)cc(F)c4)NC(=O)Cn4nc(C(F)(F)F)c5c4C(F)(F)[C@@H]4C[C@H]54)cccc23)c1 [Compound 47, 2-((3bS,4aR)-5,5-difluoro-3-(trifluoromethyl)-3b,4,4a,5-tetrahydro-1H-cyclopropa[3,4]cyclopenta[1,2-c]pyrazol-1-yl)-N—((S)-2-(3,5-difluorophenyl)-1-(6-(3-hydroxy-3-methylbut-1-yn-1-yl)-3-(1-methyl-3-(1-methyl-1H-imidazole-4-sulfonamido)-1H-indazol-7-yl)pyridin-2-yl)ethyl)acetamide]	21.4	100	100
CC(C)(O)C#Cc1ccc(-c2cccc3c(N)noc23)c([C@H](Cc2cc(F)cc(F)c2)NC(=O)Cn2nc(C(F)(F)F)c3c2C(F)(F)[C@@H]2C[C@H]32)n1 [Compound 69, N—((S)-1-(3-(3-aminobenzo[d]isoxazol-7-yl)-6-(3-hydroxy-3-methylbut-1-yn-1-yl)pyridin-2-yl)-2-(3,5-difluorophenyl)ethyl)-2-((3b-S,4aR)-5,5-difluoro-3-(trifluoromethyl)-3b,4,4a,5-tetrahydro-1H-cyclopropa[3,4]cyclopenta[1,2-c]pyrazol-1-yl)acetamide]	0.718	77	77
CCn1nc(N)c2cccc(-c3ccc(C#CC(C)(C)O)nc3[C@H](Cc3cc(F)cc(F)c3)NC(=O)Cn3nc(C(F)(F)F)c4c3C(F)(F)[C@@H]3C[C@H]43)c21 [Compound 45G, N—((S)-1-(3-(3-amino-1-ethyl-1H-indazol-7-yl)-6-(3-hydroxy-3-methylbut-1-yn-1-yl)pyridin-2-yl)-2-(3,5-difluorophenyl)ethyl)-2-((3b-S,4aR)-5,5-difluoro-3-(trifluoromethyl)-3b,4,4a,5-tetrahydro-1H-cyclopropa[3,4]cyclopenta[1,2-c]pyrazol-1-yl)acetamide]	10.4	92	92
CC(C)C(C)(O)C#Cc1ccc(-c2cccc3c(NS(C)(=O)=O)nn(C)c23)c([C@H](Cc2cc(F)cc(F)c2)NC(=O)Cn2nc(C(F)(F)F)c3c2C(F)(F)[C@@H]2C[C@H]32)n1 (stereo partly drawn) [Compound 62, 2-((3bS,4aR)-5,5-difluoro-3-(trifluoromethyl)-3b,4,4a,5-tetrahydro-1H-cyclopropa[3,4]cyclopenta[1,2-c]pyrazol-1-yl)-N-((1S)-2-(3,5-difluorophenyl)-1-(6-(3-hydroxy-3,4-dimethylpent-1-yn-1-yl)-3-(1-methyl-3-(methylsulfonamido)-1H-indazol-7-yl)pyridin-2-yl)ethyl)acetamide]	5.7	100	100
Cn1nc(NS(C)(=O)=O)c2c(C(F)F)ccc(-c3ccc(C#CC(C)(C)O)nc3[C@H](Cc3cc(F)cc(F)c3)NC(=O)Cn3nc(C(F)F)c4c3C(F)(F)[C@@H]3C[C@H]43)c21 [Compound 155I, N—((S)-1-(3-(4-(difluoromethyl)-1-methyl-3-(methylsulfonamido)-1H-indazol-7-yl)-6-(3-hydroxy-3-methylbut-1-yn-1-yl)pyridin-2-yl)-2-(3,5-difluorophenyl)ethyl)-2-((3b-S,4aR)-3-(difluoromethyl)-5,5-difluoro-3b,4,4a,5-tetrahydro-1H-cyclopropa[3,4]cyclopenta[1,2-c]pyrazol-1-yl)acetamide]	26.8	99	99
Cn1nc(NS(C)(=O)=O)c2cccc(-c3cnc(C#CC(C)(C)O)nc3[C@H](Cc3cc(F)cc(F)c3)NC(=O)Cn3nc(C(F)F)c4c3C(F)(F)CCC4(F)F)c21 [Compound 40, (S)-2-(3-(difluoromethyl)-4,4,7,7-tetrafluoro-4,5,6,7-tetrahydro-1H-indazol-1-yl)-N-(2-(3,5-difluorophenyl)-1-(2-(3-hydroxy-3-methylbut-1-yn-1-yl)-5-(1-methyl-3-(methylsulfonamido)-1H-indazol-7-yl)pyrimidin-4-yl)ethyl)acetamide]	8.72	87	87
CC(C)(O)C#Cc1ccc(-c2ccc(Cl)n3c(N)nnc23)c([C@H](Cc2cc(F)cc(F)c2)NC(=O)Cn2nc(C(F)(F)F)c3c2C(F)(F)[C@@H]2C[C@H]32)n1 [Compound 111, N—((S)-1-(3-(3-amino-5-chloro-[1,2,4]triazolo[4,3-a]pyridin-8-yl)-6-(3-hydroxy-3-methylbut-1-yn-1-yl)pyridin-2-yl)-2-(3,5-difluorophenyl)ethyl)-2-((3b-S,4aR)-5,5-difluoro-3-(trifluoromethyl)-3b,4,4a,5-tetrahydro-1H-cyclopropa[3,4]cyclopenta[1,2-c]pyrazol-1-yl)acetamide]	9.59	89	90
CC(C)(O)C#Cc1ccc(-c2cc(F)c(F)c(C(N)=O)c2)c([C@H](Cc2cc(F)cc(F)c2)NC(=O)Cn2nc(C(F)(F)F)c3c2C(F)(F)[C@@H]2C[C@H]32)n1 [Compound 30, 5-(2-((S)-1-(2-((3bS,4aR)-5,5-difluoro-3-(trifluoromethyl)-3b,4,4a,5-tetrahydro-1H-cyclopropa[3,4]cyclopenta[1,2-c]pyrazol-1-yl)acetamido)-2-(3,5-difluorophenyl)ethyl)-6-(3-hydroxy-3-methylbut-1-yn-1-yl)pyridin-3-yl)-2,3-difluorobenzamide]	8.58	1	91
Cn1nc(NS(N)(=O)=O)c2c(Cl)ccc(-c3ccc(C#CC(C)(C)O)nc3[C@H](Cc3cc(F)cc(F)c3)NC(=O)Cn3nc(C(F)(F)F)c4c3C(F)(F)[C@@H]3C[C@H]43)c21 [Compound 119C, N—((S)-1-(3-(4-chloro-1-methyl-3-(sulfamoylamino)-1H-indazol-7-yl)-6-(3-hydroxy-3-methylbut-1-yn-1-yl)pyridin-2-yl)-2-(3,5-difluorophenyl)ethyl)-2-((3b-S,4aR)-5,5-difluoro-3-(trifluoromethyl)-3b,4,4a,5-tetrahydro-1H-cyclopropa[3,4]cyclopenta[1,2-c]pyrazol-1-yl)acetamide]	9.24	99	99
Cn1nc(NS(N)(=O)=O)c2c(Cl)ccc(-c3ccc(C#CC(C)(C)O)nc3[C@H](Cc3cc(F)cc(F)c3)NC(=O)Cn3nc(C(F)F)c4c3C(F)(F)[C@@H]3C[C@H]43)c21 [Compound 70, N—((S)-1-(3-(4-chloro-1-methyl-3-(sulfamoylamino)-1H-indazol-7-yl)-6-(3-hydroxy-3-methylbut-1-yn-1-yl)pyridin-2-yl)-2-(3,5-difluorophenyl)ethyl)-2-((3b-S,4aR)-3-(difluoromethyl)-5,5-difluoro-3b,4,4a,5-tetrahydro-1H-cyclopropa[3,4]cyclopenta[1,2-c]pyrazol-1-yl)acetamide]	9.98	94	94
Cn1nc(NS(C)(=O)=O)c2c(Cl)ccc(-c3ccc(C#CC(C)(O)CF)nc3[C@H](Cc3cc(F)cc(F)c3)NC(=O)Cn3nc(C(F)(F)F)c4c3C(F)(F)[C@@H]3C[C@H]43)c21 (stereo partly drawn) [Compound 152, N-((1S)-1-(3-(4-chloro-1-methyl-3-(methylsulfonamido)-1H-indazol-7-yl)-6-(4-fluoro-3-hydroxy-3-methylbut-1-yn-1-yl)pyridin-2-yl)-2-(3,5-difluorophenyl)ethyl)-2-((3b-S,4aR)-5,5-difluoro-3-(trifluoromethyl)-3b,4,4a,5-tetrahydro-1H-cyclopropa[3,4]cyclopenta[1,2-c]pyrazol-1-yl)acetamide]	11.9	89	89
Cn1nc(NCC(F)F)c2cccc(-c3ccc(C#CC(C)(C)O)nc3[C@H](Cc3cc(F)cc(F)c3)NC(=O)Cn3nc(C(F)F)c4c3C(F)(F)[C@@H]3C[C@H]43)c21 [Compound 74D, N—((S)-1-(3-(3-((2,2-difluoroethyl)amino)-1-methyl-1H-indazol-7-yl)-6-(3-hydroxy-3-methylbut-1-yn-1-yl)pyridin-2-yl)-2-(3,5-difluorophenyl)ethyl)-2-((3b-S,4aR)-3-(difluoromethyl)-5,5-difluoro-3b,4,4a,5-tetrahydro-1H-cyclopropa[3,4]cyclopenta[1,2-c]pyrazol-1-yl)acetamide]	6.91	99	99
